In US20250332154A1, “USE OF NAPHTHOQUINE PHOSPHATE IN PREPARATION OF A MEDICAMENT FOR TREATING AUTOIMMUNE DISEASES” (SHANGHAI PHARMACEUTICALS INDUSTRY CO., LTD, priority 2022, published 2025):
Where a name gives a salt, the structure may show the parent alone.

Experiments:
[1] = Non-specific cytotoxicity assay (MTT), RAW264.7; assay type: cell-based, mouse; details: mouse, RAW264.7 cells
Procedure: RAW264.7 cells were inoculated into a 96-well plate at 1×10^5/well and allowed to adhere to the wall for 6 hours in a 37° C., 5% CO2 incubator. […] A corresponding solvent control (cell control) and a culture medium background control (blank control) were set up. The cells were cultured in a 37° C., 5% CO2 incubator for 48 hours. Fifteen minutes before the end of the culture, 20 μl of 5 mg/ml MTT was added. At the end of the culture, the supernatant was aspirated and discarded, 200 μl DMSO was added to dissolve the crystals.

[2] = tested on: IL-6; test: IL-6 secretion by TLRs-L-stimulated mouse whole spleen lymphocytes (ELISA); assay type: cell-based; details: Lymphocyte, 48 h
Procedure: (§1) BALB/c mice were sacrificed by cervical dislocation, and spleens were aseptically excised to prepare whole spleen lymphocytes. The cells were adjusted to 5×10^6 cells/ml. Hydroxychloroquine sulfate was diluted with a 3-fold gradient into 3 concentrations starting from 30 μM: 30, 10 and 3 μM; naphthoquine phosphate was diluted with a 3-fold gradient into 3 concentrations starting from 10 μM: 10, 3 and 1 μM.
Mouse spleen lymphocytes were inoculated into a 96-well plate at 100 μl/well, and the stimulant TLR4-L (final concentration: 10 μg/ml), TLR7-L (final concentration: 5 μg/ml) or TLR9-L (final concentration: 1 μM) and the compounds diluted with the above concentration gradients were added. A corresponding stimulation control and a cell control (without stimulation) were set up. The cells were cultured in a 37° C., 5% CO2 incubator for 48 hours. After the end of the culture, the cell culture supernatants were collected, and the levels of IL-1β, IL-6, and IL-10 were measured by ELISA.

[3] = tested on: TNF-α; test: TNF-α production by LPS-induced RAW264.7 cells (ELISA); assay type: cell-based, mouse; details: for production of TNF-α: LPS-induced RAW264.7, in words; for IC50: Mus musculus, LPS 10 μg/ml, RAW264.7
Procedure: (§2) RAW264.7 cells were inoculated into a 96-well plate at 1×10^5/well and allowed to adhere to the wall for 6 hours in a 37° C., 5% CO2 incubator. […] After the cells adhered to the wall, the stimulant LPS (final concentration: 10 μg/ml) and the gradient-diluted compounds were added. A corresponding stimulation control and a cell control (without stimulation) were set up. After the end of the culture, the cell culture supernatants were collected, and the levels of TNF-α, IL-1β and IL-6 were measured by ELISA.

[4] = tested on: purified mouse B cells; test: B cell proliferation assay, TLRs-L-stimulated purified mouse B cells (3H-TdR); assay type: cell-based; details: for IC50: Mus musculus, B-cell, 48 h, purified B cells, stimulant TLR4-L 10 μg/ml; for proliferation of purified mouse splenic B cells and production of inflammatory cytokines and antibodies induced by specific TLR signals: in words
Procedure: (§3) BALB/c mice were sacrificed by cervical dislocation, and spleens were aseptically excised to prepare spleen lymphocytes. The cells were adjusted to 1×10^8 cells/ml, blocked with 2.4G2 (final concentration: 10 μg/ml) for 20 min, cultured with PE-CD19 (final concentration: 5 μg/ml) for 20 min, washed with MACS buffer, centrifuged at 4° C., 300G for 10 min, 100 μl anti-PE beads were added per 1×10^8 cells, incubated with 900 μl MACS buffer for 15 min, washed with MACS buffer, centrifuged at 4° C., 300G for 10 min. The supernatant was discarded. 500 μl MACS buffer was added per 1×10^8 cells to resuspend the cells. MACS column was used for separation. Magnetically labeled cells were retained on the column. The MACS column was removed from the magnetic field and then eluted.
Hydroxychloroquine sulfate was diluted 2-fold into 3 concentrations starting from 8 μM: 8, 4 and 2 μM. Naphthoquine phosphate was diluted 2-fold into 3 concentrations starting from 0.5: 0.5, 0.25 and 0.125 μM. A suspension of purified mouse B cells was inoculated into a 96-well plate at 4×10^5/well, and the stimulant TLR4-L (final concentration: 10 μg/ml), TLR7-L (final concentration: 5 μg/ml) or TLR9-L (final concentration: 1 μM) and the gradient diluted compounds were added. A corresponding stimulation control and a cell control (without stimulation) were set up. The cells were cultured in 37° C., 5% CO2 incubator for 48 hours. Eight hours before the end of the culture, ^3H-TdR was added, and the culture was continued until the end of the experiment. The cells were collected onto glass fiber membranes using a cell collector. 5 ml scintillation fluid was added, and the values of radioactive counts per minute were read on a Beta counter (2450 Microplate Counter, PerkinElmer).

[5] = Non-specific cytotoxicity assay (MTT), mouse spleen lymphocytes; assay type: cell-based; details: BALB/c, mouse, mouse whole spleen lymphocytes
Procedure: BALB/c mice were sacrificed by cervical dislocation, and spleens were aseptically excised to prepare whole spleen lymphocytes. The cells were adjusted to the required concentration. The compound concentrations started at 250 μM and was diluted with a 4-fold gradient to obtain 10 concentrations: 250, 62.5, 15.625, 3.906, 0.977, 0.244, 0.061, 0.015, 0.004 and 0.001 μM.
A suspension of mouse spleen lymphocytes was inoculated into a 96-well plate at 8×10^5/well, and the above 10 concentration gradients of the compound were added. A corresponding cell control (i.e. spleen lymphocyte culture system without compound) and a RPMI 1640 culture medium background control (blank culture medium control) were set up. The cells were cultured in a 37° C., 5% CO2 incubator for 48 hours. Four hours before the end of the culture, 20 μl of 5 mg/ml MTT solution was added, and the reaction continued until the end of the culture (i.e. the aforementioned 48 hours). The supernatant was aspirated and discarded, 200 μl DMSO was added to each well to dissolve the crystals. […]. The absorbance value was measured at […] with a microplate reader (Spectra Max 190, Molecular Devices).

[6] = tested on: IgG; test: IgG secretion by TLRs-L-stimulated purified mouse B cells (ELISA); assay type: cell-based; details: B-cell, 120 h, stimulant TLR4-L 10 μg/ml
Procedure: as §3
A suspension of purified mouse B cells was inoculated into a 96-well plate at 4×10^5/well. Hydroxychloroquine sulfate was diluted with a 2-fold gradient into 3 concentrations, starting from 8 μM: 8, 4 and 2 μM. Naphthoquine phosphate was diluted with a 2-fold gradient into 3 concentrations starting from 0.5 μM.: 0.5, 0.25 and 0.125 μM. […] After the end of the culture, the cell culture supernatants were collected, and the levels of IgG and IgM were measured by ELISA.

[7] = tested on: IL-1β; test: IL-1β production by LPS-induced RAW264.7 cells (ELISA); assay type: cell-based, mouse; details: for IC50: Mus musculus, LPS 10 μg/ml, RAW264.7, read-out: IB-1β IC50; for production of LPS-induced IL-1β: RAW264.7, in words
Procedure: as §2

[8] = Cytotoxicity (CC50) on mouse whole spleen lymphocytes, Example 3; assay type: cell-based; details: BALB/c; mouse whole spleen lymphocytes (Tables 3 and 4)
Procedure: as §1

| IC50 ([2]; stimulant TLR4-L 10 μg/ml) [µM] | IC50 ([2]; stimulant TLR7-L 5 μg/ml) [µM] | IC50 ([2]; stimulant TLR9-L 1 μM) [µM] | IC50 [3] [µM] | IC50 [6] [µM] | IC50 [7] [µM] | Structure (SMILES) | CC50 at 48 h [1] [µM] | production of TNF-α [3] | IC50 [4] [µM] | proliferation of purified mouse splenic B cells and production of inflammatory cytokines and antibodies induced by specific TLR signals [4] | CC50 at 48 h [5] [µM] | production of LPS-induced IL-1β [7] | CC50 [8] [µM] |
| --- | --- | --- | --- | --- | --- | --- | --- | --- | --- | --- | --- | --- | --- |
| 15.3 | 1.91 | 3.92 | 46.3 | > 8 | 3.5 | CCN(CCO)CCCC(C)Nc1ccnc2cc(Cl)ccc12 (centres unmarked) [Hydroxychloroquine Sulfate, hydroxychloroquine sulfate] | 24.4 | no significant effect | 9.95 | inhibited | 25.2 | significantly inhibited | 26.9 |
| 0.63 | 0.007 | 0.29 | > 10 | 0.41 | 1.59 | CC(C)(C)NCc1cc(Nc2ccnc3cc(Cl)ccc23)c2c(c1O)CCCC2.O=P(O)(O)O.O=P(O)(O)O [Naphthoquine Phosphate, Naphthoquine phosphate] | 8.73 | no significant effect | 0.19 | inhibited | 1.45 | significantly inhibited | 1.59 |
